# Patent US11008325B2, “Inhibitors of cancer invasion, attachment, and/or metastasis” (VIRGINIA COMMONWEALTH UNIVERSITY, priority 2016, dated 2021)
# Like-named read-outs stand apart in the source and are kept apart here.
# What was measured:
# [1] = system: Dishevelled PDZ/Fz7 Wnt receptor; conditions: Xenopus embryos; cited from earlier work
# [2] = molecular target: T1, MDA-9 PDZ12 tandem domain (PDZ1) (Homo sapiens, UniProt O00560); assay: NMR [15N,1H] HSQC chemical shift change and titration binding; conditions: for Binding affinity ranking: chemical shift change (DPPM) of backbone amide of residue 147, 50 μM PDZ12, compound at 1:1 molar ratio
# T1 construct: the MDA-9/Syntenin construct used for the screen contains both PDZ domains; made in house
# T1 sequence (O00560 110-274): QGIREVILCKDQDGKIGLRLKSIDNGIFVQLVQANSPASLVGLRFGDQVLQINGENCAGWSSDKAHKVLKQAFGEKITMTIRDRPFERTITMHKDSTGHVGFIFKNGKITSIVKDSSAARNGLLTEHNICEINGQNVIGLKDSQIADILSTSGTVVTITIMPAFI
# Description: FIGS. 4A-4E. FIG. 4A. […] FIG. 4B. Superposition of 2D [^15N, ^1H]-HSQC spectra of 50 μM MDA-9 PDZ12 tandem domain in the absence and presence of 350 μM 113B7. FIG. 4C. Binding curve and representative spectra for the titration of 113B7 against MDA-9 PDZ12 tandem domain. Top: Zoom of box region in FIG. 4B after titrating 113B7 into Mda9 PDZ, tandem domain. […] Bottom: Titration curve of 113B7 for residue A147. […] FIG. 4D. […] FIG. 4E. Docked structure of 113B7 in complex with MDA-9 PDZ tandem domain (PDB: 1W9E). The pose was obtained with GOLD. Two PDZ domains of MDA-9 are labeled.
# NMR based screening of an house assembled fragment library of about 5,000 compounds using [^15N,^1H] […] The proposed docked structure of PDZ1i in the PDZ1 domain and interdomain of MDA-9/Syntenin is shown in FIGS. 4A-4E and FIG. 5, while the chemical structure of PDZ1i is also shown in FIGS. 4A-4E and FIG. 5.
# In all binding assays, the MDA-9/Syntenin construct used for the screen contains both PDZ domains. Constructs uniformly labeled with ^15N and ^13C or ^13C-Met selectively labeled are used for binding, mapping and structural studies. These same proteins are used for ITC binding studies.
# [3] = system: human cancer cell lines; conditions: cited from earlier work
# [4] = system: mouse xenograft model; conditions: in vivo; cited from earlier work
# [5] = migration (SAR, Table 4); type: cell-based
# [6] = NMR titration following backbone amide of residue 147, read-out: Kd values
Molecule,"Kd [2, 6] [µM]",Binding affinity ranking [2],also measured
GSKTLQSWRRYH [Fz7 peptide],,,Wnt3A-induced canonical Wnt signaling [1]: peptide attenuates Wnt3A-induced
CC(NC(=O)C(OC(=O)C(C)NC(=O)OC(C)(C)C)C(C)C)C(=O)OC(C(=O)O)C(C)C (stereo not shown) [NSC-668036],,,"Wnt3A-induced canonical Wnt signaling [1]: In Xenopus embryos, NSC-668036 inhibits the canonical Wnt signaling induced by Wnt3A (34)."
Cc1cc(=O)n2nc(C(=O)Nc3ccc(O)c(F)c3)nc2[nH]1 [112G2],147,4 (4 for DPPM 0.06-0.08),
O=c1[nH]c2sc3c(c2c2ncnn12)CCCC3 [cmpd6],,1 (1 for DPPM 0.00-0.02),
Cc1cc(=O)n2nc(C(=O)Nc3cc(Cl)c(O)c(Cl)c3)nc2[nH]1 [112G1],57.3,6 (6 for DPPM above 0.1),
Cc1cc(NC(=O)c2nc3[nH]c4c(c(=O)n3n2)CCC4)c(C)cc1NC(=O)CCc1nnc(-c2ccsc2)o1 [113B11],,3 (3 for DPPM 0.04-0.06),
CCCCC(O)C1Nc2cc(C)c(C(=O)O)cc2C1CCc1ccccc1 (stereo not shown),,,apoptosis [3]: Induction of apoptosis in human cancer cell lines; tumor growth [4]: tumor growth inhibition in a mouse xenograft model
COc1ccc(Br)c(-c2nnc(CCC(=O)Nc3cc(C)c(NC(=O)c4nc5[nH]c6c(c(=O)n5n4)CCC6)cc3C)o2)c1 [113B12],,1 (1 for DPPM 0.00-0.02),
Cc1cc(=O)n2nc(C(=O)Nc3ccc(N)cc3)nc2[nH]1 [112E7],944,1 (1 for DPPM 0.00-0.02),
O=C(Nc1ccc(O)cc1)c1nc2[nH]c3c(c(=O)n2n1)CCC3 [112E12],1610,1 (1 for DPPM 0.00-0.02),
Cc1cc(=O)n2nc(NCc3ccccc3)nc2[nH]1 [cmpd1],,2 (2 for DPPM 0.02-0.04),
O=C(Nc1ccc(O)c(F)c1)c1nc2[nH]c3c(c(=O)n2n1)CCC3 [112F12],166,2 (2 for DPPM 0.02-0.04),
O=C(Nc1ccc(O)c(Cl)c1)c1nc2[nH]c3c(c(=O)n2n1)CCC3 [112G3],119,,
O=c1c2c([nH]c3nc(COc4ccccc4)nn13)CCC2 [cmpd11],171,5 (5 for DPPM 0.08-0.1),
Nc1ccc(NC(=O)c2nc3[nH]c4c(c(=O)n3n2)CCC4)cc1 [112G11],263,2 (2 for DPPM 0.02-0.04),
O=C(Nc1ccc(O)c(Cl)c1)c1nc2[nH]c3c(c(=O)n2n1)CCC3 [112F10],,4 (4 for DPPM 0.06-0.08),
O=c1c2c([nH]c3nc(CCc4ccccc4)nn13)CCC2 [cmpd13],,3 (3 for DPPM 0.04-0.06),
Cc1c(C)c(NC(=O)c2nc3[nH]c4c(c(=O)n3n2)CCC4)c(C)c(C)c1N [113B8],151,5 (5 for DPPM 0.08-0.1),

Molecule,"Kd [2, 6] [µM]",Binding affinity ranking [2],also measured
Cc1cc(NC(=O)c2nc3[nH]c4c(c(=O)n3n2)CCC4)c(C)cc1NC(=O)Cc1ccc(-c2ccccc2)cc1 [113B9],,N.B.,
SGKLKLMTTV [Dapper peptide],,,Wnt3A-induced canonical Wnt signaling [1]: peptide attenuates Wnt3A-induced
Cc1cc(=O)n2nc(CCc3ccccc3)nc2[nH]1 [cmpd2],,3 (3 for DPPM 0.04-0.06),
Cc1[nH]c2nc(C(=O)NCc3ccccc3)nn2c(=O)c1C [cmpd5],,2 (2 for DPPM 0.02-0.04),
Cc1cc(=O)n2nc(COc3ccccc3)nc2[nH]1 [30A9],197,4 (4 for DPPM 0.06-0.08),
Cc1cc(=O)n2nc(SCc3ccccc3)nc2[nH]1 [cmpd4],,4 (4 for DPPM 0.06-0.08),
Cc1cc(=O)n2nc(C(=O)Nc3cccc(Cl)c3)nc2[nH]1 [cmpd10],151,4 (4 for DPPM 0.06-0.08),
O=C(Nc1cc(Cl)c(O)c(Cl)c1)c1nc2[nH]c3c(c(=O)n2n1)CCC3 [112F11],,5 (5 for DPPM 0.08-0.1),
Cc1cc(NC(=O)c2nc3[nH]c4c(c(=O)n3n2)CCC4)c(C)cc1NC(=O)CCc1nnc(-c2cccc(C(F)(F)F)c2)o1 [112H9],38.3,2 (2 for DPPM 0.02-0.04),"Kd ([2]; estimated by NMR titration in 2D HSQC experiments (Table 4), read-out: Kd): 38 µM; % migr. [5]: 24%"
Cc1cc(=O)n2nc(C(=O)Nc3ccc(O)cc3)nc2[nH]1 [112D11],245,2 (2 for DPPM 0.02-0.04),
Cc1cc(=O)n2nc(C(=O)Nc3cc(Cl)c(N)cc3Cl)nc2[nH]1 [112G4],34.3,6 (6 for DPPM above 0.1),"Kd ([2]; fragment hits, FIG. 55B, read-out: Kd): ~300 µM"
Cc1cc(=O)n2nc(C(=O)Nc3ccc4c(c3)OCO4)nc2[nH]1 [cmpd9],,3 (3 for DPPM 0.04-0.06),
Cc1cc(=O)n2nc(C(=O)Nc3ccc4c(c3)OCCO4)nc2[nH]1 [cmpd7],,2 (2 for DPPM 0.02-0.04),
Cc1cc(O)n2nc(C(=O)Nc3ccc(O)cc3)nc2n1 [112F1],,1 (1 for DPPM 0.00-0.02),
O=c1c2c([nH]c3nc(NCc4cccs4)nn13)CCC2 [cmpd3],,1 (1 for DPPM 0.00-0.02),
CCCc1cc(=O)n2nc(COc3ccccc3)nc2[nH]1 [cmpd14],,1 (1 for DPPM 0.00-0.02),
COc1cccc(NC(=O)c2nc3[nH]c(C)cc(=O)n3n2)c1 [cmpd8],,3 (3 for DPPM 0.04-0.06),
